{"source": "patent US7947833B2", "about": "“Preparation of quinoxaline compounds” (Janssen Pharmaceutica NV, priority 2004, dated 2011)", "target": "CCK2 receptor (Cavia porcellus, UniProt H0VZC5)", "sequence (H0VZC5 entry or part of it)": "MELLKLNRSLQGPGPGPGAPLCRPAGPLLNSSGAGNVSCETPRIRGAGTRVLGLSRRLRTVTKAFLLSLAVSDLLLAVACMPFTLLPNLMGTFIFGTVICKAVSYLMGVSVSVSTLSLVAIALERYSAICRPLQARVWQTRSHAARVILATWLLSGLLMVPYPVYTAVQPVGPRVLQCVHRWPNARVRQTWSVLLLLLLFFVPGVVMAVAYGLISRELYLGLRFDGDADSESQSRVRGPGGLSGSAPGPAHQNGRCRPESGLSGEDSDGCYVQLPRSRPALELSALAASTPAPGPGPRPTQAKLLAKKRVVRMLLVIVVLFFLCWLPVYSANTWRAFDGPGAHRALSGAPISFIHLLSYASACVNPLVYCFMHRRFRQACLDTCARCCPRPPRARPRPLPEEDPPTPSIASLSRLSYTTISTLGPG", "test": "Guinea-pig gastric corpeal muscle assay (pentagastrin-induced contraction)", "settings": "isolated guinea-pig gastric corpeal muscle strips, pentagastrin concentration-response curves, CCK1 receptors blocked", "experimental": "Guinea-Pig Gastric Corpeal Muscle Assay\nCCK2 receptor-mediated muscle contraction was measured in an isolated muscle-strip assay of guinea-pig gastric corpeal muscle according to the methods described by Roberts et al. (S. P. Roberts, E. A. Harper, G. F. Watt, V. P. Gerskowitch, R. A. Hull, N. P. Shankley, and J. W. Black, Br. J. Pharmacol., 1996, 118(7):1779-1789). In brief, strips of muscle were dissected and suspended in isolated tissue organ baths for isotonic muscle contraction recording. The baths, containing Krebs-Henseleit solution, were maintained at […]. and gassed continuously with 95% O2 and 5% CO2. CCK1 receptors known to be present in this assay were blocked using a selective concentration of a suitable CCK1 receptor antagonist (e.g. 2-NAP). The effectiveness of the test compounds was assessed by measuring their effect on contractile concentration-response curves obtained using a well-characterized surrogate for the hormone gastrin (pentagastrin). […]"}
{"smiles": "C[C@@H](NC(=O)c1ccc(Br)cc1NS(=O)(=O)c1cccc2nccnc12)c1ccc(F)cc1F", "note": "[Example 2, (R)-4-Bromo-N-[1-(2,4-difluoro-phenyl)-ethyl]-2-(quinoxaline-5-sulfonylamino)-benzamide]", "values": [{"measurement": "behaviour in the assay (mode of antagonism)", "result": "competitive antagonist"}]}
